{"source": "patent US20150344426A1", "about": "“COMPOUNDS AND THERAPEUTIC USES THEREOF” (ALZHEIMER'S INSTITUTE OF AMERICA, INC., priority 2012, published 2015)", "key": {"[1]": {"experiment": "Kinetic solubility (iSol Explorer method)", "format": "physicochemical", "conditions": "system solution buffer (pION), aqueous buffer, kinetic from dmso stock", "experimental": "Kinetic solubility was determined using the iSol Explorer method (pION Inc.; Woburn, Mass.). Certain Example Compounds were dissolved in dimethylsulfoxide (DMSO; >99.9% ACS spectrophotometric grade; Sigma-Aldrich, St. Louis, Mo.) to a concentration of 100 mM. The DMSO stock was diluted 1:100 in system solution buffer (pION Inc. Wobum Mass.) that had been adjusted to the desired pH (5.0, 6.8, and 7.4) with either HCl or NaOH. The diluted samples in the desired buffer were incubated for 15 minutes at room temperature and filtered using 96-well plate with 0.25 mm glass fiber/1.2 μm polyethersulfone filter bottoms (Corning, Inc.; Corning, N.Y.). The filtrate is transferred to a second 96-well plate and read on a SpectraMAX 190 (Molecular Devices; Sunnyvale, Calif.) scanning from 190 to 498 nm. The data are analyzed with Sol Explorer Command version 2.2, (pION Inc. Woburn, Mass.) and the concentration reported in molarity and/or mass per volume."}, "[2]": {"experiment": "Stability assessment / semi-quantitative hygroscopicity in a relative humidity (RH) chamber", "format": "physicochemical", "conditions": "solid in RH chamber; morphology and parent:prodrug composition", "experimental": "“ND” in Table 2 refers to “No Data”. Purity was determined by HPLC. Melting point was determined by differential scanning calorimetry (“DSC”), and semi-quantitative hygroscopicity was determined in a relative humidity (“RH”) chamber."}, "[3]": {"experiment": "Experiment 1: hepatic portal vein samples of rats after oral Example Compound 35", "format": "in vivo, female Sprague-Dawley rats", "source_text": "It is believed that Example Compound 35 metabolizes in vivo into Parent Compound A (i.e., it is believed that Example Compound 35 is a prodrug of Parent Compound A). The objective of this study was to determine the concentration of Example Compound 35 and Parent Compound A in hepatic portal vein samples of female Sprague-Dawley rats following oral administration of only Example Compound 35, and to quantify the extent of transport into hepatic portal circulation, if any, of Example Compound 35. A second objective was to determine the relative bioavailability of Parent Compound A in the portal vein following oral administration of Example Compound 35.\nExperiment 1. Three female Sprague Dawley rats (200-215 g, Harlan Laboratories, Indianapolis, Ind.) with cannulae implanted surgically in the portal vein for blood sampling were used in this study. Example Compound 35, formulated in 50 mM Glycine pH 3.0 with 0.5% HPMC and 0.05% Tween-80, was administered by oral gavage (PO) at a dose of 20 mg/kg in a volume of 2 mL/kg. This dose is the molar equivalent of a 13.5 mg/kg dose of Parent Compound A. Portal blood samples were collected through the portal vein cannula from each animal at 0.25, 0.5, 1, 2, 4, and 8 hours following administration of compound. Samples were split into two fractions and one was supplemented with citrate buffer (final concentration 100 mM, pH 3.0) to stabilize Example Compound 35 and stop conversion of Example Compound 35 to Parent Compound A ex vivo during analysis. Samples were then processed to generate plasma and analyzed for Example Compound 35 by LC-MS/MS. Plasma derived from the second aliquot of blood was analyzed for Parent Compound A.\nPharmacokinetic parameters estimated for Parent Compound A included the maximum observed drug concentration (Cmax), time of maximum observed drug concentration (Tmax), apparent terminal half-life (t1/2), area under the concentration-time curve from time zero to 8 hours postdose (AUC(0-8)), and area under the concentration-time curve extrapolated to infinity (AUC(0-inf)). The bioavailability (% F) of Parent Compound A in portal vein samples relative to IV administration was also estimated.\nPlasma samples were analyzed for Example Compound 35 or Parent Compound A concentration using a LC-MS/MS method. All sample runs met standard acceptance criteria for discovery purposes, and were based on a standard curve containing at least 7 points. At least half of quality control samples at each of the three concentrations tested, and two thirds of the entire quality control sample pool, were within 15% of their theoretical value. The r^2 value for each standard curve was ≧0.99. The quantitation range for the Example Compound 35 and Parent Compound A assays was 1 to 100 ng/mL and 5 to 2,500 ng/mL, respectively, using a 0.05 mL sample volume.\nThe data were entered into the PK software package WinNonlin® version 5.1.1. A complete data check was conducted to verify the accuracy of data entry.\nPharmacokinetic parameters were estimated on median plasma concentrations using extravascular input (PO). Nominal collection times after administration of compound were used for PK analyses. The use of a non-compartmental model provided an adequate fit of the data. Pharmacokinetic parameters estimated for Parent Compound A included the maximum observed drug concentration (Cmax), time of maximum observed drug concentration (Tmax), apparent terminal half-life (t1/2), apparent volume of distribution (Vz obs), apparent clearance (C1 obs), area under the concentration-time curve from time zero to 8 hours postdose of Example Compound 35 […], and area under the concentration-time curve extrapolated to infinity (AUC(0-inf)). Example Compound 35 was detected in only one 0.25 hour hepatic portal vein sample at 1.29 ng/mL. Any Example Compound 35 present in all of the other samples was below the quantitation limit of 1 ng/mL and pharmacokinetic parameters were not determined for those samples. […]"}, "[4]": {"tested_on": "HT1080 human fibrosarcoma cancer cells", "experiment": "Anti-tumor activity in HT1080 human fibrosarcoma xenograft with twice daily dosing", "format": "in vivo", "conditions": "for MTV increase / tumor growth inhibition relative to vehicle: 6 mg/kg twice daily for 8 days; for MTV decrease / tumor regression: 12 mg/kg twice daily for 8 days", "how_it_was_run": "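Female nude mice (Crl:NU-Fox1^nu) bearing s.c. flank tumors from 1 million HT1080 cells, randomized into cohorts of ten at median tumor volumes about 82–209 mm^3. Dosing twice daily for 7 days; tumor volumes and body weights tracked from Day 1 to Days 15–22.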"}, "[5]": {"conditions": "female rats, orally at 20 mg/kg"}}, "note": "“And” between values parts separate entries of the source, which are not always exact repeats. Identical values can stand only once."}
{"smiles": "O=C(NCc1ccc[n+](COC(=O)c2ccccc2)c1)Nc1ccc(OCCc2ccccc2-c2ccccc2)cc1", "note": "[Example 35, 1-[(Benzoyloxy)methyl]-3-{[({4-[2-(biphenyl-2-yl)ethoxy]phenyl}carbamoyl)amino]methyl} pyridinium]", "values": [{"measurement": "solubility at 15 min", "setting": "[1]; pH 5.0, 15 minutes at room temperature", "value": 402, "unit": "µM"}, {"measurement": "solubility at 15 min", "setting": "[1]; pH 6.8, 15 minutes at room temperature", "value": 404, "unit": "µM"}, {"measurement": "solubility at 15 min", "setting": "[1]; pH 7.4, 15 minutes at room temperature", "value": 433, "unit": "µM"}, {"measurement": "Stability at 40° C. and 75% RH", "setting": "[2]", "value": "No change in morphology stopped at 13 days, only prodrug observed"}, {"measurement": "Stability at 60° C. and 75% RH", "setting": "[2]", "value": "Deliquesced at 7 days, approx 30:70 parent to prodrug observed"}, {"measurement": "Conversion to Parent Compound A following oral administration", "setting": "[3]; [5]", "value": "rapidly converted"}, {"measurement": "Transport of Example Compound 35 into the hepatic portal vein", "setting": "[3]; [5]", "value": "not significantly transported"}, {"measurement": "concentration at 1 h", "setting": "[3]; female, Sprague-Dawley, rat, plasma (hepatic portal vein), po, 20 mg/kg, portal vein, 1 hr after oral Example Compound 35 20 mg/kg, individual rats, * = below the quantitation limit of 1 ng/mL, read-out: [Ex. Cmp. 35]", "value": 0.24, "unit": "ng/mL"}, {"measurement": "concentration at 2 h", "setting": "[3]; female, Sprague-Dawley, rat, plasma (hepatic portal vein), po, 20 mg/kg, portal vein, 2 hr after oral Example Compound 35 20 mg/kg, individual rats, * = below the quantitation limit of 1 ng/mL, read-out: [Ex. Cmp. 35]", "value": 0.15, "unit": "ng/mL"}, {"measurement": "concentration at 4 h", "setting": "[3]; female, Sprague-Dawley, rat, plasma (hepatic portal vein), po, 20 mg/kg, portal vein, 4 hr after oral Example Compound 35 20 mg/kg, individual rats, * = below the quantitation limit of 1 ng/mL, read-out: [Ex. Cmp. 35]", "value": 0.13, "unit": "ng/mL"}, {"measurement": "Example Compound 35 present in all of the other portal vein samples", "setting": "[3]; oral 20 mg/kg, all samples other than one 0.25 hour sample, quantitation limit", "value": "< 1", "unit": "ng/mL"}, {"measurement": "[Ex. Cmp. 35]", "setting": "[3]; portal vein, 0.25 hr after oral Example Compound 35 20 mg/kg, individual rats, * = below the quantitation limit of 1 ng/mL, 20 mg/kg", "value": 1.29, "unit": "ng/mL"}, {"measurement": "[Ex. Cmp. 35]", "setting": "[3]; portal vein, 0.25 hr after oral Example Compound 35 20 mg/kg, individual rats, * = below the quantitation limit of 1 ng/mL, listed as Ex. Cmp. 35, 20 mg/kg", "value": "0.38* ng/mL and 1.3 ng/mL and 0.75* ng/mL"}, {"measurement": "[Ex. Cmp. 35]", "setting": "[3]; portal vein, 0.5 hr after oral Example Compound 35 20 mg/kg, individual rats, * = below the quantitation limit of 1 ng/mL, listed as Ex. Cmp. 35, 20 mg/kg", "value": "0.8* ng/mL and 0.32* ng/mL and 0.4* ng/mL"}, {"measurement": "[Ex. Cmp. 35]", "setting": "[3]; portal vein, 1 hr after oral Example Compound 35 20 mg/kg, individual rats, * = below the quantitation limit of 1 ng/mL, listed as Ex. Cmp. 35, 20 mg/kg", "value": "0.38* ng/mL and 0.29* ng/mL"}, {"measurement": "[Ex. Cmp. 35]", "setting": "[3]; portal vein, 2 hr after oral Example Compound 35 20 mg/kg, individual rats, * = below the quantitation limit of 1 ng/mL, listed as Ex. Cmp. 35, 20 mg/kg", "value": "0.3* ng/mL and No Peak"}, {"measurement": "[Ex. Cmp. 35]", "setting": "[3]; portal vein, 4 hr after oral Example Compound 35 20 mg/kg, individual rats, * = below the quantitation limit of 1 ng/mL, listed as Ex. Cmp. 35, 20 mg/kg", "value": "No Peak and 0.13* ng/mL"}, {"measurement": "[Ex. Cmp. 35]", "setting": "[3]; portal vein, 8 hr after oral Example Compound 35 20 mg/kg, individual rats, * = below the quantitation limit of 1 ng/mL, listed as Ex. Cmp. 35, 20 mg/kg", "value": "No Peak and 0.16* ng/mL and 0.07* ng/mL"}, {"measurement": "MTV increase", "setting": "[4]; Day 9", "value": 31, "unit": "%"}, {"measurement": "tumor growth inhibition relative to vehicle", "setting": "[4]; Day 9", "value": 87, "unit": "%"}, {"measurement": "MTV increase", "setting": "[4]; Day 21", "value": 2245, "unit": "%"}, {"measurement": "tumor growth inhibition relative to vehicle", "setting": "[4]; Day 21", "value": 78, "unit": "%"}, {"measurement": "MTV decrease", "setting": "[4]; Day 9", "value": 81, "unit": "%"}, {"measurement": "tumor regression", "setting": "[4]; Day 9", "value": 80, "unit": "%"}, {"measurement": "MTV decrease", "setting": "[4]; Day 21", "value": 33, "unit": "%"}, {"measurement": "tumor regression", "setting": "[4]; Day 21", "value": 33, "unit": "%"}, {"measurement": "animals with no detectable tumors by the end of the study", "setting": "[4]; Example Compound 35 study, 12 mg/kg, cohort of ten", "value": "Four"}, {"measurement": "animals euthanized", "setting": "[4]; Example Compound 35 study, 6 and 12 mg/kg", "value": "No animals"}, {"measurement": "anti-tumor activity in the HT1080 xenograft model (summary statement)", "setting": "[4]; administered orally, twice daily, all doses tested", "value": "significant anti-tumor activity"}, {"measurement": "maximal reduction in median body weight", "setting": "[4]; over the course of the study, all doses tested, orally twice daily", "value": "< 15 % of the initial weight"}, {"measurement": "Tolerability", "setting": "[4]; xenograft mice, all doses tested, orally twice daily", "value": "well tolerated"}]}
